We go through five compounds from patent US20240090546A1, “COMPOSITIONS COMPRISING AND METHODS OF USING 1,3-PROPANEDIOL, TO IMPROVE SWEETNESS AND/OR REDUCE BITTERNESS OF SWEETENERS” (Primient Covation LLC, priority 2022, published 2024).

Format in all cases: in vivo, human
Test [1] has as its system Six panelists experienced in the evaluation of food and beverages. The test is described as follows: Tasting of sweeteners with and without Zemea USP-FCC propanediol. As to conditions: sweetener with 5 ppm Zemea USP-FCC Propanediol versus without. From the text: Six panelists experienced in the evaluation of food and beverages tasted sweeteners and commercial beverages with and without the addition of Zemea USP-FCC propanediol. The six panelists tasted the products and discussed their perceptions of the flavor. They indicated whether the test or control product in each pair was sweeter, less bitter, and/or less sour.

In test [2] the test system is panelists. In words: Absolute taste threshold of Zemea USP-FCC PDO in water (flash profile, blind tasting). As to conditions: at 690 ppm (FEMA #4753 use limit for beverages). From the text: (§1) • 1. Panelists: Recruit at least 5 and preferably 12 staff who has no allergy to the big 8 food allergens. • 2. Prototypes: • a. Freshly made to same age (<1 week if possible) • b. Serve all samples at same size (>1 oz for beverages), and at same temperature (70F for foods, 40F for beverages) • 3. Random coded (3-digit) and random ordered up to 5 samples • 4. Keep to less than 5 samples per panel session. Less than 4 panels/day. • 5. For each panelist, ship (under covid-19): • a. one set of 5 samples • b. one instruction (this page) ballot (attachment 1) and one example for how to fill in (attachment 2) • c. one bottled water (Aquafina or equivalent, no minerals added. Panelist to bring own under covid-19) • 6. […] Describe the panelists how to blind-taste same day upon receipt according to panelists instruction below. • 8. […] Ask each panelist to scan/send a picture of the filled-in ballot to panel leader. Panel leader will issue a “directional analysis” (1 day) as a minimum and may include PCA (3 days) leading to conclusions and recommendations.
(§2) Instruction for Flash Profiling Method panelists: • 1. […] Please taste this set mid-morning (9a-N) or mid-afternoon (2-4p) if possible • 3. Arrange the 5 samples in front of you in any order • 4. For the Flash Profiling Method ballot, fill in today's Date, your Name, and Sample (s) as “project xxx-Round x samples” • 5. […]

The test system of test [3] is panelists. The test is described as follows: Flash profile blind tasting of beverages and bitter substances with Zemea USP-FCC added. As to conditions: Zemea added at 5-940 ppm to the beverages and bitter substances of Table 1; blind tasting by N>6.
Text: as §1, §2

Test [4] has as its system Six panelists experienced in the evaluation of food and beverages. The test is described as follows: Screening of Zemea USP-FCC at 5, 20 and 100 ppm in reduced sugar stevia sweetened orange juice. The conditions noted are these: 5 ppm, compared with 20 and 100 ppm and control. From the text:
Six panelists experienced in the evaluation of food and beverages screened Zemea® USP-FCC at 5, 20, and 100 ppm in a reduced sugar stevia sweetened orange juice. The reduced sugar stevia sweetened orange juice containing no Zemea® USP-FCC was used as the control.

Test [5] concerns 40 untrained panelists. In words: Paired comparison test for bitterness, reduced sugar stevia sweetened orange juice. The protocol: Paired comparison tests for bitterness were conducted on 40 untrained panelists. The reduced sugar stevia sweetened orange juice was used as the control and was prepared with 0.0005% Zemea® USP-FCC (5 ppm) as the test variable. The products were served in 2-ounce soufflé cups labeled with 3-digit codes at refrigerated temperatures. The panelists were asked to identify the sample that was more bitter. Bottled water and unsalted crackers were available for panelists to clear their palates before and during testing.

For the compound `O=C(CO)C(O)C(O)C(O)CO` (stereo not shown) [Allulose], the Effect result in test [1] is given as “Enhanced sweetness”.

Turning to `OC[C@@H](O)[C@@H](O)CO` [Erythritol], the Effect entry in test [1] is “Enhanced sweetness”.

With `OC[C@H]1O[C@@](CO)(O[C@H]2O[C@H](CO)[C@@H](O)[C@H](O)[C@H]2O)[C@@H](O)[C@@H]1O` [Sucrose, sucrose], the Effect result in test [1] is reported as “Enhanced sweetness”.

As to `O=C(CO)[C@@H](O)[C@@H](O)[C@H](O)CO` [Tagatose], in test [1], the Effect entry is “Enhanced sweetness”.

With `OCCCO` [Zemea® USP-FCC Propanediol, 1,3-propanediol], the “taste of Zemea USP-FCC PDO” value in test [2] is on record as “tasteless”. In addition, in test [3], the “bitterness of individual ingredients and beverages” value is listed as “less bitter”; the “liking of individual ingredients and beverages” value is listed as “more liked”. Also, the bitterness perception result in test [4] is recorded as “lowest bitterness perception”. Further, the “number of 40 untrained panelists who identified the sample as more bitter” value in test [5] (5 ppm (0.0005%) in stevia-sweetened orange juice, control chosen by 26, one-tailed exact p-value 0.04) is recorded as 14. Also, the “bitterness versus control containing no Zemea USP-FCC” value in test [5] (5 ppm added directly to reduced sugar orange juice with stevia, p-value 0.04, one-tailed) is recorded as “statistically less bitter”.
